# Source: patent US20030155090A1, “Process for controlling microbial growth” (priority 2000, published 2003)
# How the values were obtained:
# Strain 1 = test: Survival of isolated bacteria in nutrient broth under a CO2 atmosphere at 45° C., colony count on agar plates; format: cell-based
# Description: (§1) A set of representative bacterial strains was isolated from a white water sample from a Swedish recycled pulp mill. The sample originally yielded 70 bacterial strains which each represented a group of different bacteria, which grew under similar conditions. The strains were tested on different media and their oxygen demands were studied. The results gave an indication of eight main groups. […] Those three groups were put together to one large group.
# (§2) From this dominating group, one strain was chosen for the carbon dioxide experiments. Two other strains from another recycled pulp mill were included in the experiments.
# (§3) Glass bottles were tempered to 45° C. and CO2 was added to create a carbon dioxide atmosphere. Bacteria from the three isolated strains were added to separate bottles together with a nutrient broth. A first sample representing “0 min” was taken out immediately from each bottle and then at a number of occasions during the next three hours. Each sample was diluted in dilution series with dilution 1/10 in six steps (10^1-10^6) and grown on agar plates. The plates were incubated at 45° C. for two days, after which the number of colonies were counted and related to the dilution.
# Strain 2 = test: as above; format: cell-based
# Description: as §1, §2, §3
# Strain 3 = test: as above; format: cell-based
# Description: as §1, §2, §3
# three isolated strains = test: Survival under a CO2 atmosphere, average of the three isolated strains; format: cell-based, bacteria; conditions: for percentage of surviving cells, Average: 45° C.
# Description: as §1, §2, §3
# [1] = test system: microbial activity during storage; test: Full-scale mill trial, carbon dioxide introduced just prior to the pulp storage tower; conditions: 1-2 kg CO2/ton pulp just prior to the storage tower, chemical pulp
# Description: A mill produced wood-free paper from chemical pulp. At the time of the trials, the mill stored pulp for long periods of time in storage towers prior to the stock preparation. The storage caused problems with bad smell and black spots in the pulp, which was believed to be caused by high microbial activity during storage.
# A full-scale trial of treatment with a gaseous inhibitor was performed. Thus, carbon dioxide gas was introduced in an amount of 1-2 kg CO2/ton pulp just prior to the storage tower.
structure (smiles),measurement,setting,value
"O=C=O [CO2, carbon dioxide]",percentage of surviving cells,"Strain 1; Strain 1, 0 min",100%
same,percentage of surviving cells,"Strain 1; Strain 1, 10 min",75%
same,percentage of surviving cells,"Strain 1; Strain 1, 20 min",34%
same,percentage of surviving cells,"Strain 1; Strain 1, 30 min",73%
same,percentage of surviving cells,"Strain 1; Strain 1, 40 min",50%
same,percentage of surviving cells,"Strain 1; Strain 1, 50 min",61%
same,percentage of surviving cells,"Strain 1; Strain 1, 60 min",59%
same,percentage of surviving cells,"Strain 1; Strain 1, 80 min",39%
same,percentage of surviving cells,"Strain 1; Strain 1, 100 min",16%
same,percentage of surviving cells,"Strain 1; Strain 1, 120 min",18%
same,percentage of surviving cells,"Strain 1; Strain 1, 140 min",5%
same,percentage of surviving cells,"Strain 1; Strain 1, 160 min",4%
same,percentage of surviving cells,"Strain 1; Strain 1, 180 min",9%
same,percentage of surviving cells,"Strain 2; Strain 2, 0 min",100%
same,percentage of surviving cells,"Strain 2; Strain 2, 10 min",141%
same,percentage of surviving cells,"Strain 2; Strain 2, 20 min",76%
same,percentage of surviving cells,"Strain 2; Strain 2, 30 min",137%
same,percentage of surviving cells,"Strain 2; Strain 2, 40 min",48%
same,percentage of surviving cells,"Strain 2; Strain 2, 50 min",94%
same,percentage of surviving cells,"Strain 2; Strain 2, 60 min",46%
same,percentage of surviving cells,"Strain 2; Strain 2, 80 min",88%
same,percentage of surviving cells,"Strain 2; Strain 2, 100 min",55%
same,percentage of surviving cells,"Strain 2; Strain 2, 120 min",43%
same,percentage of surviving cells,"Strain 2; Strain 2, 140 min",35%
same,percentage of surviving cells,"Strain 2; Strain 2, 160 min",41%
same,percentage of surviving cells,"Strain 2; Strain 2, 180 min",24%
same,percentage of surviving cells,"Strain 3; Strain 3, 0 min",100%
same,percentage of surviving cells,"Strain 3; Strain 3, 10 min",92%
same,percentage of surviving cells,"Strain 3; Strain 3, 20 min",77%
same,percentage of surviving cells,"Strain 3; Strain 3, 30 min",58%
same,percentage of surviving cells,"Strain 3; Strain 3, 40 min",47%
same,percentage of surviving cells,"Strain 3; Strain 3, 50 min",36%
same,percentage of surviving cells,"Strain 3; Strain 3, 60 min",67%
same,percentage of surviving cells,"Strain 3; Strain 3, 80 min",44%
same,percentage of surviving cells,"Strain 3; Strain 3, 100 min",42%
same,percentage of surviving cells,"Strain 3; Strain 3, 120 min",16%
same,percentage of surviving cells,"Strain 3; Strain 3, 140 min",7%
same,percentage of surviving cells,"Strain 3; Strain 3, 160 min",4%
same,percentage of surviving cells,"Strain 3; Strain 3, 180 min",2%
same,"percentage of surviving cells, Average","three isolated strains; Average of Strains 1-3, 0 min",100%
same,"percentage of surviving cells, Average","three isolated strains; Average of Strains 1-3, 10 min",103%
same,"percentage of surviving cells, Average","three isolated strains; Average of Strains 1-3, 20 min",62%
same,"percentage of surviving cells, Average","three isolated strains; Average of Strains 1-3, 30 min",89%
same,"percentage of surviving cells, Average","three isolated strains; Average of Strains 1-3, 40 min",48%
same,"percentage of surviving cells, Average","three isolated strains; Average of Strains 1-3, 50 min",64%
same,"percentage of surviving cells, Average","three isolated strains; Average of Strains 1-3, 60 min",57%
same,"percentage of surviving cells, Average","three isolated strains; Average of Strains 1-3, 80 min",57%
same,"percentage of surviving cells, Average","three isolated strains; Average of Strains 1-3, 100 min",38%
same,"percentage of surviving cells, Average","three isolated strains; Average of Strains 1-3, 120 min",47%
same,"percentage of surviving cells, Average","three isolated strains; Average of Strains 1-3, 140 min",16%
same,"percentage of surviving cells, Average","three isolated strains; Average of Strains 1-3, 160 min",16%
same,"percentage of surviving cells, Average","three isolated strains; Average of Strains 1-3, 180 min",12%
same,bacteria survived,three isolated strains; after 2 hours,about 50%
same,bacteria survived,three isolated strains; after 3 hours,more than 10%
same,bacteria survived,three isolated strains; after approximately 1 hour,about 60%
same,number of black spots in the pulp,[1],reduced
same,pulp's smell,[1],reduced
